The source of these data is patent US9814776B2, “Pharmaceutical preparation comprising aminopyrazole derivative” (Chugai Seiyaku Kabushiki Kaisha, priority 2013, dated 2017).

≈ marks a conversion by molar mass, not a printed value.

The data set can be described thus: Solubility of Compound 1 malate after 24 hours in Dissolution Test Solution 1 of the Japanese Pharmacopoeia with 5% surfactant. The class given is physicochemical. Conditions: thermodynamic from solid. How it is done:
The surfactants shown in Table 3 and Dissolution Test Solution 1 of the Japanese Pharmacopoeia were used, and the concentration of each surfactant was adjusted to 5%. Compound 1 malate was sufficiently added thereto, the mixture was stirred, and the solubility after 24 hours was measured.

`Cc1nc2cc(-n3ncc(C(=O)c4cc5ccccc5[nH]4)c3N)ccc2[nH]1` [Compound 1, [5-amino-1-(2-methyl-3H-benzimidazol-5-yl)-1H-pyrazol-4-yl]-(1H-indol-2-yl)-methanone]: the solubility at 24 h is 145 µg/mL (≈ 406 µM) (pH 1.2, aqueous with cosolvent or surfactant or cyclodextrin, 5% Polyoxyethylene (10) octylphenyl ether); 138 µg/mL (≈ 388 µM) (pH 1.2, aqueous with cosolvent or surfactant or cyclodextrin, 5% Polysorbate 80); 136 µg/mL (≈ 383 µM) (pH 1.2, aqueous with cosolvent or surfactant or cyclodextrin, 5% Sodium lauryl sulfate); 18.5 µg/mL (≈ 51.9 µM) (pH 1.2, simulated gastric fluid, no surfactant).
